# According to patent US20240269298A1, “PHOSPHONYL DERIVATIVE, AND COMPOSITION AND PHARMACEUTICAL APPLICATION THEREOF” (XIZANG HAISCO PHARMACEUTICAL CO., LTD., priority 2021, published 2024):
# pIC50: −log10 of the molar value. Read-outs that look alike come from different tables or passages of the source.
# How the values were obtained:
# [1] = tested on: NCI-H1975 (EGFR-L858R-T790M) cells; assay: Inhibitory activity on proliferation of NCI-H1975 (EGFR-L858R-T790M) cells (CTG, 72 h); type: cell-based; settings: Homo sapiens
# How it was run: (§1)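 Cells plated at 1000/well (NCI-H1975, RPMI1640+10% FBS) or 3000/well (A431, DMEM+10% FBS), dosed next day with compounds (0.1% DMSO final) for 72 h at 37 °C, 5% CO2. Viability by CTG luminescence, normalised to vehicle control; IC50 from nonlinear-regression dose-survival curves.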
# A431 (EGFR-WT) cells = assay: Inhibitory activity on proliferation of A431 (EGFR-WT) cells (CTG, 72 h); type: cell-based; settings: Homo sapiens, A-431
# How it was run: as §1
# [2] = target: T1, EGFR protein in NCI-H1975 EGFR-L858R-T790M-C797S cells (Homo sapiens, UniProt P00533, C797S/L858R/T790M); assay: Degradation activity on EGFR protein in NCI-H1975 EGFR-L858R-T790M-C797S cells, Method I (western blot, 72 h); type: cell-based; settings: 72 h incubation, EGFR protein relative to DMSO control
# T1 construct: expressed in transfected cells; host or cells: NCI-H1975 EGFR-L858R-T790M-C797S (kept under hygromycin selection)
# T1 sequence (P00533 25-1210 T790M/C797S/L858R): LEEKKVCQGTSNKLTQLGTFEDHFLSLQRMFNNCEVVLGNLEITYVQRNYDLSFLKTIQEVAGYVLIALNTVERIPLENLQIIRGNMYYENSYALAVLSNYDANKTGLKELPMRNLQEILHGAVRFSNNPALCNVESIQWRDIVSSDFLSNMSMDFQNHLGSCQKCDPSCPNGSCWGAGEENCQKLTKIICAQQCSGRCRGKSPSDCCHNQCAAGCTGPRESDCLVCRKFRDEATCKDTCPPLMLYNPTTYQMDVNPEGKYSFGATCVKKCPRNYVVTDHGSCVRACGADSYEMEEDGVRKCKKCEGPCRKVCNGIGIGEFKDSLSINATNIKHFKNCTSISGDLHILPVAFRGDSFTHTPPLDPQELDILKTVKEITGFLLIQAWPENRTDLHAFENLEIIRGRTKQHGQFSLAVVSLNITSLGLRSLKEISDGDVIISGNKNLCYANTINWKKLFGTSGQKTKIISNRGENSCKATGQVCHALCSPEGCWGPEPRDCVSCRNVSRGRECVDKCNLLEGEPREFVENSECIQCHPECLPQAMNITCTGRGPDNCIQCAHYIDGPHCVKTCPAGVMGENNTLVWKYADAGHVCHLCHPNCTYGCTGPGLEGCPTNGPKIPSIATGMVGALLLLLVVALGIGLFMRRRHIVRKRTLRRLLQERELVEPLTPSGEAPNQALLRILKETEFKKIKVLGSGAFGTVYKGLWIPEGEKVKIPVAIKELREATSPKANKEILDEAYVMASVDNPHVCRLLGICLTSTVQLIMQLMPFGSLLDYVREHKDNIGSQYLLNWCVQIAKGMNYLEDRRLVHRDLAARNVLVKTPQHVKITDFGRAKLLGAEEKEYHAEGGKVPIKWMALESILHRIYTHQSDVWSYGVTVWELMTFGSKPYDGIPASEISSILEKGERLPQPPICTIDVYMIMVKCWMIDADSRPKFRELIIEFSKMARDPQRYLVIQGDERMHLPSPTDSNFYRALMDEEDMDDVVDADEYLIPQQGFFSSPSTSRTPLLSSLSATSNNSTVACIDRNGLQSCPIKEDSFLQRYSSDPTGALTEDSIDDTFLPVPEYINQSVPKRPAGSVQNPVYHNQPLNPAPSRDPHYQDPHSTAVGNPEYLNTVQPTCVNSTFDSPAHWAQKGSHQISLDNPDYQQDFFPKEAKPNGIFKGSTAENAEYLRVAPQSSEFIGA
# Protocol: Protein sample preparation: NCI-H1975 EGFR-L858R-T790M-C797S cells were cultured in an incubator at 37° C. with 5% CO2, and the culture medium was RPMI1640+10% FBS+100 μg/mL hygromycin. The cells in the logarithmic phase were collected, and the cell suspension was adjusted to an appropriate concentration with a hygromycin-free culture medium, plated on a 6-well plate at a density of 200000 cells/well and a volume of 2 mL, and cultured overnight in an incubator at 37° C. with 5% CO2. The next day, the compounds at different concentrations were added. DMSO control wells were provided, wherein the concentration of DMSO in all wells was 0.1%. The 6-well plate was cultured in an incubator at 37° C. with 5% CO2 for 72 h, and then 30 μL of RIPA lysates (Beyotime, Cat. P0013B) containing protease inhibitors (Beyotime, Cat. P0013B) were added. The mixtures were lysed on ice for 30 min. Centrifugation was carried out at 13000 rpm/min at 4° C. for 20 min to collect protein supernatant samples, and protein quantification was performed by the BCA method. Samples for western blot detection were prepared.
# Western blot detection: 20 μg of protein samples were added to each well, subjected to polyacrylamide gel electrophoresis and transferred to a membrane, and then diluted anti-EGFR (CST, Cat. 4267S) and […] (Kangchen, Cat. KC-5G4) antibodies were added and incubated overnight at 4° C. After washing the membrane, diluted goat anti-rabbit (Licor, Cat. 926-32211) and goat anti-mouse (Licor, Cat. 926-68070) antibodies were added and incubated in the dark for 45 min. Scanning and detection at wavelengths of 700 nm and 800 nm were performed with a far-infrared imaging system (Odyssey).
# According to formula (3), the expression level of EGFR protein in the cells relative to the DMSO control group was calculated after incubation with different concentrations of compounds. wherein EGFRcompound was the fluorescence value of EGFR protein after incubation with compounds, and EGFRvehicle was the fluorescence value of EGFR protein in the DMSO control group. Using the Origin 9.2 software, the drug concentration DC50 values when the expression level of EGFR protein was 50% relative to the DMSO control group were calculated.
# [3] = Pharmacokinetic test in mice; type: in vivo; settings: male, ICR, mouse, po, administration i.g. (10 mg/kg), plasma
# How it was run: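 Male ICR mice (20-25 g), fasted 12-14 h before dosing and fed 4 h after, received a single intravenous or intragastric dose. Orbital plasma sampled from 0 to 24 h (5 min-24 h points); LC-MS/MS quantitation for PK parameters and bioavailability.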
# [4] = tested on: NCI-H1975 EGFR-L858R-T790M-C797S cells; assay: Inhibitory activity on proliferation of NCI-H1975 EGFR-L858R-T790M-C797S cells (CellTiter-Glo, 72 h); type: cell-based; settings: Homo sapiens
# Protocol: NCI-H1975 EGFR-L858R-T790M-C797S cells were cultured in an incubator at 37° C. with 5% CO2, and the culture medium was RPMI1640+10% FBS+100 μg/mL hygromycin. The cells in the logarithmic phase were collected, and the cell suspension was adjusted to an appropriate concentration with a hygromycin-free culture medium, and then plated on a 96-well plate at a density of 1500 cells/well and a volume of 90 μL. 10 μL of the compounds at different concentrations were added, and a vehicle control group (cells plus DMSO) was provided, wherein the concentration of DMSO was 0.1%. The cell culture plate was cultured in an incubator at 37° C. with 5% CO2 for 72 hours. After the incubation was completed, according to operation instructions for a CellTiter-Glo kit (Promega, G7572), 50 μL of CTG solution, which was already pre-melted and equilibrated to room temperature, was added to each well, and the mixtures were uniformly mixed for 2 min using a microplate shaker. The plate was placed at room temperature for 10 min, and then […] signal values were measured using a microplate reader (Envision 2104). […] was processed based on formula (2), and using the GraphPad Prism 5.0 software and nonlinear regression model, S-shaped dose-survival curves were plotted, and IC50 values were calculated. wherein Vsample was the readout of the drug-treated group, and Vvehicle control was the readout of the control group.
# [5] = read-out: IC50 (value in brackets)
Compound,pIC50 ([1]; read-out: IC50 (class symbol)),"pIC50 [1, 5]",pIC50 (A431 (EGFR-WT) cells),DC50 [2] [nM],AUC(0-t) [3] [ng·h/mL],pIC50 ([4]; read-out: IC50 (class symbol)),pIC50 ([4]; read-out: IC50 (value)),AUC [3] [ng·h/mL],half-life [3] [h]
"COc1cc(N2CCC(N3CCC4(CCN(c5ccc6c(c5)C(=O)N(C5CCC(=O)NC5=O)C6=O)CC4)CC3)CC2)c(-c2cnn(C)c2)cc1Nc1ncc(Br)c(Nc2ccc(-c3ccccc3)cc2P(C)(C)=O)n1 (centres unmarked) [Compound 84, 5-(9-(1-(4-((5-bromo-4-((3-(dimethylphosphoryl)-[1,1′-biphenyl]-4-yl)amino)pyrimidin-2-yl)amino)-5-methoxy-2-(1-methyl-1H-pyrazol-4-yl)phenyl)piperidin-4-yl)-3,9-diazaspiro[5.5]undecan-3-yl)-2-(2,6-dioxopiperidin-3-yl)isoindoline-1,3-dione]",> 7.00,7.37,≤ 5.00,< 100,4570,> 6.70,7.33,,
"COc1cc(N2CCN(CC3CCN(c4ccc5c(c4)C(=O)N(C4CCC(=O)NC4=O)C5=O)CC3)CC2)c(-c2cnn(C)c2)cc1Nc1ncc(Br)c(Nc2ccc(-c3ccccc3)cc2P(C)(C)=O)n1 (centres unmarked) [Compound 77, 5-(4-((4-(4-((5-bromo-4-((3-(dimethylphosphoryl)-[1,1′-biphenyl]-4-yl)amino)pyrimidin-2-yl)amino)-5-methoxy-2-(1-methyl-1H-pyrazol-4-yl)phenyl)piperazin-1-yl)methyl)piperidin-1-yl)-2-(2,6-dioxopiperidin-3-yl)isoindoline-1,3-dione]",> 7.00,7.49,≤ 5.00,< 100,,> 6.70,7.34,47300,5.79
"COc1cc(N2CCN(C3CCN(c4ccc5c(c4)C(=O)N(C4CCC(=O)NC4=O)C5=O)CC3)CC2)c(-c2cnn(C)c2)cc1Nc1ncc(Cl)c(Nc2ccc(-c3ccccc3)cc2P(C)(C)=O)n1 (centres unmarked) [Compound 100, 5-(4-(4-(4-((5-chloro-4-((3-(dimethylphosphoryl)-[1,1′-biphenyl]-4-yl)amino)pyrimidin-2-yl)amino)-5-methoxy-2-(1-methyl-1H-pyrazol-4-yl)phenyl)piperazin-1-yl)piperidin-1-yl)-2-(2,6-dioxopiperidin-3-yl)isoindoline-1,3-dione]",> 7.00,7.32,≤ 5.00,< 100,,> 6.70,7.08,33300,2.49
"COc1cc(N2CCN(CC3CCN(c4ccc5c(c4)C(=O)N(C4CCC(=O)NC4=O)C5=O)C3)CC2)c(-c2cnn(C)c2)cc1Nc1ncc(Br)c(Nc2ccc(-c3ccccc3)cc2P(C)(C)=O)n1 (centres unmarked) [Compound 67, 5-(3-((4-(4-((5-bromo-4-((3-(dimethylphosphoryl)-[1,1′-biphenyl]-4-yl)amino)pyrimidin-2-yl)amino)-5-methoxy-2-(1-methyl-1H-pyrazol-4-yl)phenyl)piperazin-1-yl)methyl)pyrrolidin-1-yl)-2-(2,6-dioxopiperidin-3-yl)isoindoline-1,3-dione]",> 7.00,7.43,≤ 5.00,< 100,,> 6.70,6.94,70900,3.86
"COc1cc(N2CCC(N3CCN(c4ccc5c(c4)C(=O)N(C4CCC(=O)NC4=O)C5=O)CC3)CC2)c(-c2cnn(C)c2)cc1Nc1ncc(Cl)c(Nc2ccc(-c3ccccc3)cc2P(C)(C)=O)n1 (centres unmarked) [Compound 92, 5-(4-(1-(4-((5-chloro-4-((3-(dimethylphosphoryl)-[1,1′-biphenyl]-4-yl)amino)pyrimidin-2-yl)amino)-5-methoxy-2-(1-methyl-1H-pyrazol-4-yl)phenyl)piperidin-4-yl)piperazin-1-yl)-2-(2,6-dioxopiperidin-3-yl)isoindoline-1,3-dione]",> 7.00,7.15,≤ 5.00,< 100,,> 6.70,7.19,63000,6.88
"COc1cc(N2CCC(N3CCN(c4ccc5c(c4)C(=O)N(C4CCC(=O)NC4=O)C5=O)CC3)CC2)c(-c2cnn(C)c2)cc1Nc1ncc(Br)c(Nc2ccc(-c3ccccc3)cc2P(C)(C)=O)n1 (centres unmarked) [Compound 81, 5-(4-(1-(4-((5-bromo-4-((3-(dimethylphosphoryl)-[1,1′-biphenyl]-4-yl)amino)pyrimidin-2-yl)amino)-5-methoxy-2-(1-methyl-1H-pyrazol-4-yl)phenyl)piperidin-4-yl)piperazin-1-yl)-2-(2,6-dioxopiperidin-3-yl)isoindoline-1,3-dione]",> 7.00,7.15,≤ 5.00,< 100,51000,> 6.70,7.31,,

# The next lines start with the values.
pIC50 ([1]; read-out: IC50 (class symbol)),"pIC50 [1, 5]",pIC50 (A431 (EGFR-WT) cells),DC50 [2] [nM],AUC(0-t) [3] [ng·h/mL],pIC50 ([4]; read-out: IC50 (class symbol)),pIC50 ([4]; read-out: IC50 (value)),AUC [3] [ng·h/mL],half-life [3] [h],Compound
> 7.00,7.44,≤ 5.00,< 100,47000,> 6.70,7.22,,,"COc1cc(N2CCN(CC3CCN(c4ccc5c(c4)C(=O)N(C4CCC(=O)NC4=O)C5=O)CC3)CC2)c(-c2cnn(C)c2)cc1Nc1ncc(Br)c(Nc2ccc(-c3ccccc3F)cc2P(C)(C)=O)n1 (centres unmarked) [Compound 96, 5-(4-((4-(4-((5-bromo-4-((3-(dimethylphosphoryl)-2′-fluoro-[1,1′-biphenyl]-4-yl)amino)pyrimidin-2-yl)amino)-5-methoxy-2-(1-methyl-1H-pyrazol-4-yl)phenyl)piperazin-1-yl)methyl)piperidin-1-yl)-2-(2,6-dioxopiperidin-3-yl)isoindoline-1,3-dione]"
> 7.00,7.21,≤ 5.00,< 100,42300,> 6.70,7.10,,,"COc1cc(N2CCN(CC3CCN(c4ccc5c(c4)C(=O)N(C4CCC(=O)NC4=O)C5=O)CC3)CC2)c(-c2cnn(C)c2)cc1Nc1ncc(Cl)c(Nc2ccc(-c3ccccc3F)cc2P(C)(C)=O)n1 (centres unmarked) [Compound 97, 5-(4-((4-(4-((5-chloro-4-((3-(dimethylphosphoryl)-2′-fluoro-[1,1′-biphenyl]-4-yl)amino)pyrimidin-2-yl)amino)-5-methoxy-2-(1-methyl-1H-pyrazol-4-yl)phenyl)piperazin-1-yl)methyl)piperidin-1-yl)-2-(2,6-dioxopiperidin-3-yl)isoindoline-1,3-dione]"
> 7.00,7.34,≤ 5.00,< 100,,> 6.70,7.17,35900,4.16,"COc1cc(N2CCN(CC3CCN(c4ccc5c(c4)C(=O)N(C4CCC(=O)NC4=O)C5=O)CC3)CC2)c(-c2cnn(C)c2)cc1Nc1ncc(Cl)c(Nc2ccc(-c3ccccc3)cc2P(C)(C)=O)n1 (centres unmarked) [Compound 90, 5-(4-((4-(4-((5-chloro-4-((3-(dimethylphosphoryl)-[1,1′-biphenyl]-4-yl)amino)pyrimidin-2-yl)amino)-5-methoxy-2-(1-methyl-1H-pyrazol-4-yl)phenyl)piperazin-1-yl)methyl)piperidin-1-yl)-2-(2,6-dioxopiperidin-3-yl)isoindoline-1,3-dione]"
